Read-outs that look alike come from different tables or passages of the source.
Target: T1, mu opiate receptor (MOR) (Rattus norvegicus, UniProt P33535)
T1 construct: from tissue; host or cells: striatum (membrane preparation)
Assay type: biochemical
Settings: for Concentration of FLNA-Binding Compound as Agonist 0.1 μM / Concentration of FLNA-Binding Compound as Agonist 1 μM / Concentration of FLNA-Binding Compound as Agonist 1 μM + BFNA: [35S]GTPγS binding to Gαo in striatal membranes; for Concentration of FLNA-Binding Compound as Agonist 0.1 μM: compound 0.1 μM; for Concentration of FLNA-Binding Compound as Agonist 1 μM: compound 1 μM; for Concentration of FLNA-Binding Compound as Agonist 1 μM + BFNA: compound 1 μM plus 1 μM β-funaltrexamine (MOR antagonist)
Procedure: To assess the mu opiate receptor (MOR) agonist activity of positive compounds from the FLNA screening, compounds were tested in a [^35S]GTPγS binding assay using striatal membranes. […] This assay measures a functional consequence of receptor occupancy at one of the earliest receptor-mediated events. The assay permits for traditional pharmacological parameters of potency, efficacy and antagonist affinity, with the advantage that agonist measures are not subjected to amplification or other modulation that may occur when analyzing parameters further downstream of the receptor.
Thus, striatal tissue was homogenized in 10 volumes of ice cold 25 mM HEPES buffer, pH 7.4, which contained 1 mM EGTA, 100 mM sucrose, 50 μg/ml leupeptin, 0.04 mM PMSF, 2 μg/ml soybean trypsin inhibitor and 0.2% 2-mercaptoethanol. The homogenates were centrifuged at 800×g for 5 minutes and the supernatants were centrifuged at 49,000×g for 20 minutes.
The resultant striatal membrane preparation (200 μg) was admixed and maintained (incubated) at 30° C. for 5 minutes in reaction buffer as above that additionally contained 1 mM MgCl2 and 0.5 nM [^35S]GTPγS (0.1 μCi/assay, PerkinElmer Life and Analytical Sciences) in a total volume of 250 μl and continued for 5 minutes in the absence or presence of 0.1-10 μM of an assayed compound of interest. The reaction was terminated by dilution with 750 μl of ice-cold reaction buffer that contained 20 mM MgCl2 and 1 mM EGTA and immediate centrifugation at 16,000×g for 5 minutes.
Normal rabbit serum (1 μl) was added to 1 ml of lysate and incubated at 25° C. for 30 minutes. Nonspecific immune complexes were removed by incubation with 25 μl of protein A/G-conjugated agarose beads at 25° C. for 30 minutes followed by centrifugation at 5,000×g at 4° C. for 5 minutes. The supernatant was divided and separately incubated at 25° C. for 30 minutes with antibodies raised against Gαo proteins (1:1,000 dilutions).
The immunocomplexes so formed were collected by incubation at 25° C. for 30 minutes with 40 μl of agarose-conjugated protein A/G beads and centrifugation at 5,000×g at 4° C. for 5 minutes. The pellet was washed and suspended in buffer containing 50 mM Tris-HCl, pH 8.0, and 1% NP-40. The radioactivity in the suspension was determined by liquid scintillation spectrometry.

[1] = 0.1 μM compound, striatal membranes, Series C-2
[2] = 1 μM compound + 1 μM β-FNA (selective MOR antagonist), Series C-2
[3] = 1 μM compound, striatal membranes, Series C-2

T1 sequence (P33535 whole entry): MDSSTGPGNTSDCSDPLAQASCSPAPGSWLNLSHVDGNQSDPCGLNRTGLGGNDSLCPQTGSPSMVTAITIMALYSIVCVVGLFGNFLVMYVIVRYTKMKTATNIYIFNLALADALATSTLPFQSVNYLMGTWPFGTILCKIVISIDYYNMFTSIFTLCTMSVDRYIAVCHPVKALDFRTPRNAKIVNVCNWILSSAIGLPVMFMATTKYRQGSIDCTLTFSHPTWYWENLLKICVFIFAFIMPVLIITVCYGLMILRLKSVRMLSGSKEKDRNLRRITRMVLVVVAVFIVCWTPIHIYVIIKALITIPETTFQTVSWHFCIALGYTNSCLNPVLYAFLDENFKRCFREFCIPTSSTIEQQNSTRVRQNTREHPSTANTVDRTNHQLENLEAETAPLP

| SMILES | % DAMGO (0.1 μM) | % DAMGO (1 μM) | % DAMGO + BFNA | Concentration of FLNA-Binding Compound as Agonist 0.1 μM | Concentration of FLNA-Binding Compound as Agonist 1 μM | Concentration of FLNA-Binding Compound as Agonist 1 μM + BFNA | [35S]GTPγS binding, FLNA-Binding Compound as Agonist at 0.1 μM [1] | [35S]GTPγS binding, FLNA-Binding Compound as Agonist at 1 μM + BFNA [2] | [35S]GTPγS binding, FLNA-Binding Compound as Agonist at 1 μM [3] | [35S]GTPγS binding, FLNA-Binding Compound as Agonist at 0.1 μM | [35S]GTPγS binding, FLNA-Binding Compound as Agonist at 1 μM | [35S]GTPγS binding, FLNA-Binding Compound as Agonist at 1 μM + BFNA |
| --- | --- | --- | --- | --- | --- | --- | --- | --- | --- | --- | --- | --- |
| COc1c2c(cc3c1C(CC(=O)c1ccncc1)[N+](C)(C)CC3)OCO2 (stereo not drawn) [Compound B0005] | 50.5% | 42.6% | 68.6% | 89.2% | 110.4% | 45.1% |  |  |  |  |  |  |
| CCOc1ccc(C(=O)CC2c3c(cc4c(c3OC)OCO4)CC[N+]2(C)C)cc1F (stereo not drawn) [Compound B0020] | 30.1% | 68.0% | 47.8% | 51.6% | 181.6% | 24.9% |  |  |  |  |  |  |
| COc1c2c(cc3c1C(CC(=O)Cc1ccccc1C)N(C)CC3)OCO2 (stereo not drawn) [Compound B0053] | 94.8% | 137.0% | 809.0% | 160.2% | 299.8% | 134.3% |  |  |  |  |  |  |
| COc1ccc(C(=O)CC2c3c(cc4c(c3OC)OCO4)CC[N+]2(C)C)cc1 (stereo not drawn) [Compound B0024] | 93.2% | 116.7% | 58.2% | 155.8% | 285.9% | 20.2% |  |  |  |  |  |  |
| CC1CCC(C(C)C)C(OCC(O)CN2CCCC2=O)C1 (stereo not drawn) [Compound A0035] | 61.5% | 57.5% | 119.9% | 120.6% | 158.8% | 88.6% |  |  |  |  |  |  |
| COc1ccccc1S(=O)(=O)N1CCC2(CC1)OCCN2S(=O)(=O)c1ccccc1OC [Compound C0003] | 91.9% | 83.3% | 163.9% | 162.3% | 215.9% | 107.7% |  |  |  |  |  |  |
| COc1c2c(cc3c1C(CC(=O)Cc1ccccc1C)[N+](C)(C)CC3)OCO2 (stereo not drawn) [Compound B0031] | 109.6% | 99.6% | 65.6% | 210.8% | 272.0% | 28.8% |  |  |  |  |  |  |
| CC1CCCC(OCC(O)CN2CC(C)OC(C)C2)C1 (stereo not drawn) [Compound A0021] | 79.8% | 112.4% | 34.9% | 133.3% | 275.3% | 12.1% |  |  |  |  |  |  |
| CN1CCC2(CC1)NC(=O)CN2Cc1ccccc1 [Compound C0104M] | 99.5% | 96.3% | 296.5% |  |  |  | 188.2% | 143.8% | 238.9% |  |  |  |
| COc1ccc(S(=O)(=O)N2CCOC23CCN(CC2CC2)CC3)cc1 [Compound C0090M] | 137.7% | 155.2% | 118.8% |  |  |  |  |  |  | 237.0% | 341.0% | 41.0% |
| O=S(=O)(c1ccc(OC(F)(F)F)cc1)N1CCC2(CC1)OCCN2S(=O)(=O)c1ccc(OC(F)(F)F)cc1 [Compound C0006] | 70.6% | 73.8% | 7.2% | 121.5% | 204.0% | 4.6% |  |  |  |  |  |  |
| COc1cccc(OC)c1C(=O)CC1c2c(cc3c(c2OC)OCO3)CC[N+]1(C)C (stereo not drawn) [Compound B0023] | 99.4% | 100.1% | 81.8% | 166.1% | 245.3% | 28.4% |  |  |  |  |  |  |
| O=C1CN(Cc2ccccc2)C2(CCN(S(=O)(=O)c3cc(Cl)cc(Cl)c3O)CC2)N1 [Compound C0138M] | 86.3% | 90.9% | 131.0% | 126.9% | 183.9% | 51.5% |  |  |  |  |  |  |
| OC(COc1ccc(Br)c(F)c1)CN1CCc2ccccc2C1 (stereo not drawn) [Compound A0057] | 79.6% | 83.3% | 112.3% | 124.2% | 192.1% | 44.8% |  |  |  |  |  |  |
| Cc1cccc(S(=O)(=O)N2CCC3(CC2)OCCN3S(=O)(=O)c2cccc(C)c2)c1 [Compound C0014] | 82.0% | 59.2% | 116.1% | 144.9% | 153.5% | 76.3% |  |  |  |  |  |  |
| O=S(=O)(c1ccccc1Oc1ccccc1)N1CCC2(CC1)NCCO2 [Compound C0149M-2] | 122.0% | 124.8% | 102.3% |  |  |  | 209.8% | 93.4% | 406.7% |  |  |  |
| CC(C)c1ccc(S(=O)(=O)N2CCC3(CC2)OCCN3S(=O)(=O)c2ccc(C(C)C)cc2)cc1 [Compound C0007] | 46.0% | 70.5% | 17.0% | 79.1% | 195.0% | 10.9% |  |  |  |  |  |  |
| COc1ccc(S(=O)(=O)N2CCOC23CCN(S(=O)(=O)c2ccc(C(C)=O)cc2)CC3)cc1 [Compound C0047] | 98.1% | 88.5% | 182.0% | 142.2% | 206.1% | 80.1% |  |  |  |  |  |  |
| O=[N+]([O-])c1ccc(S(=O)(=O)N2CCC3(CC2)NCCS3)cc1 [Compound C0044] | 102.8% | 128.0% | 356.0% |  |  |  | 173.7% | 59.1% | 280.1% |  |  |  |
| O=S(=O)(c1csc2ccccc12)N1CCC2(CC1)OCCN2S(=O)(=O)c1csc2ccccc12 [Compound C0150M] | 97.2% | 129.8% | 173.2% | 167.1% | 423.1% | 93.4% |  |  |  |  |  |  |
